Data published in patent publication US9492450B2, “Inhibition of dynamin related protein 1 to promote cell death” (University of Pittsburgh—of the Commonwealth System of …, priority 2011, dated 2016).

Key:
[1] = tested on: Bax/Bak WT and double knockout (DKO) SV40-transformed MEF cells; assay: Apoptosis, ROS and mitochondrial morphology in Bax/Bak MEF cells; assay type: cell-based, mouse; conditions: cisplatin alone 20 h in DKO cells; combination within 8 h
Protocol: FIG. 24A-E. The combination of cisplatin and mdivi-1 enhances MOMP bypassing Bax/Bak-dependent mechanism. (A) Bax/Bak wild-type (Bax/Bak+/+) and double knockout (Bax/Bak−/−) SV40-transformed MEF cells were treated with cisplatin at indicated concentrations for 20 h. The cleavage of caspase-9 and -3 were detected by western blot. (B, C) Cleavage of caspase-9 and -3 in Bax/Bak wild-type and double knockout MEF cells after combination treatment. (D) Quantification of apoptotic cells by Annexin V and PI after 8 h treatment of combination at 50 μM. (E) Release of cytochrome c from Bax/Bak wild-type and double knockout MEF cells after combination treatment.
FIG. 25A-I. Mdivi-1 causes mitochondrial dysfunction and its combination with cisplatin induces mitochondrial swelling that triggers Bax/Bak-independent MOMP. (A) MDA-MB-231 cells and H1299 cells were treated as indicated for 4 h and subjected to ATP determination. […] (B, C) OCR and ECAR were measured after 4 h treatment of H1299 cells with agents alone or the combination (C/M). […] Mitochondrial membrane potential was determined with TMRM. […] Mitochondrial membrane potential was measured as in D. (F) Bax/Bak double knockout MEF cells were treated as indicated for 2 h, ROS generation was determined with DCF-DA. […] Mitochondrial morphology was analyzed by confocal microscopy. […] Mitochondrial ultrastructure was analyzed by electron microscopy. […]

[2] = tested on: primary epithelial ovarian cancer (EOC) cells; assay: Ex vivo drug sensitivity assay on primary cells from ovarian cancer patient ascites; assay type: cell-based, human; conditions: MTS 72 h
Protocol: FIG. 20A-C. The combination of cisplatin and mdivi-1 efficiently overcomes acquired cisplatin resistance in human ovarian cancer cells, including those from endstage cisplatin- and treatment-refractory patient. (A) The comparison of cisplatin sensitivity in ovarian cancer cells A2780 and their derivative cisplatin-resistant A2780cis cells (left panel). A2780cis cells were treated with cisplatin alone or in combination with mdivi-1 for 72 h (right panel). The survival was determined by MTS assay. (B and C) Ex vivo drug sensitivity assay using primary EOC cells isolated from ascites fluid of ovarian cancer patients (B, treatment-naïve; C, cisplatin-resistant). Apoptosis was measured by caspase-3/7 activity assay after 20 h exposure and the survival was measured by MTS assay after 72 h exposure. […]
Cell proliferation was determined using a CyQUANT Direct Cell Proliferation Assay kit (Invitrogen), the activity of caspase-3/7 was measured using a Caspase-Glo 3/7 Assay Systems (Promega, Madison, Wis.), and the MTS colorimetric survival assay was performed using the CellTiter 96 AQueous One Solution Cell Proliferation Assay kit (Promega, Madison, Wis.), according to the manufacturer's instructions. The survival fractions were calculated after setting untreated control cells at 100%. […] The cytotoxic interactions between the two drugs was determined using the method of Chou and Talalay. […]

## N.N.[Cl][Pt][Cl] [cisplatin]
[1]
  cleavage of caspase-9 and -3: absence of cleavage of caspase-9 and -3
[2]; EOC cells of a patient not treated with cisplatin (treatment-naïve)
  IC50: ~7.97 µM
[2]; EOC cells of a patient with clinically-defined cisplatin resistance
  IC50: ~11.6 µM
